`*/C(C#N)=C(\C#N)n1c(=O)c2cc3c(=O)n(*)c(=O)c3cc2c1=O` (repeat unit): the glass transition temperature worked out at 210.00 °C.
`*/C=C/c1c(OC(=O)c2ccc(C(=O)Oc3cccc4ccc(*)nc34)cc2)ccc2ccccc12` (repeat unit) displayed a glass transition temperature of 175.00 °C.
`*C(=O)Nc1ccc(NC(=O)c2ccc3c(c2)C(=O)N(c2c(C)cc(C)c(N4C(=O)c5ccc(*)cc5C4=O)c2C)C3=O)cc1` (repeat unit) had a glass transition temperature of 327.00 °C.
Turning to `*C(=O)Nc1cccc(Oc2cccc(Oc3cccc(Oc4cccc(Oc5cccc(NC(=O)c6ccc7c(c6)C(=O)N(c6cccc(Oc8cccc(Oc9cccc(N%10C(=O)c%11ccc(*)cc%11C%10=O)c9)c8C#N)c6)C7=O)c5)c4C#N)c3)c2C#N)c1` (repeat unit), the glass transition temperature was found to be 193.00 °C.
The value for `*C(=O)c1ccc2c(c1)C(=O)N(c1ccc(-c3c(-c4ccc(-c5ccccc5)cc4)cc(-c4ccc(OCCCCCCCCCCOc5ccc(-c6cc(-c7ccc(-c8ccccc8)cc7)c(-c7ccc(N8C(=O)c9ccc(*)cc9C8=O)cc7)c(-c7ccc(-c8ccccc8)cc7)c6)cc5)cc4)cc3-c3ccc(-c4ccccc4)cc3)cc1)C2=O` (repeat unit) was 103.50 °C.
`*C(=O)c1ccc2c(c1)C(=O)N(c1ccc(-c3c(-c4ccc(-c5ccccc5)cc4)cc(-c4ccc(OCCCCCCOc5ccc(-c6cc(-c7ccc(-c8ccccc8)cc7)c(-c7ccc(N8C(=O)c9ccc(*)cc9C8=O)cc7)c(-c7ccc(-c8ccccc8)cc7)c6)cc5)cc4)cc3-c3ccc(-c4ccccc4)cc3)cc1)C2=O` (repeat unit) came in with a glass transition temperature of 111.50 °C.
The value for `*C(=O)c1ccc2c(c1)C(=O)N(c1ccc(-c3ccc(N4C(=O)c5ccc(*)cc5C4=O)c(OCCCCCCOc4ccc(/C=C/c5ccc(F)cc5)cc4)c3)cc1OCCCCCCOc1ccc(/C=C/c3ccc(F)cc3)cc1)C2=O` (repeat unit) was 128.00 °C; that for `*C(=O)c1ccc2c(c1)C(=O)N(c1ccc(-c3ccccc3N3C(=O)c4ccc(*)cc4C3=O)cc1)C2=O` (repeat unit) was 305.00 °C.
The figure for `*C(=O)c1ccc2c(c1)C(=O)N(c1ccc(-c3nc(-c4ccccc4)nc(-c4ccc(N5C(=O)c6ccc(*)cc6C5=O)cc4)n3)cc1)C2=O` (repeat unit) is 355.00 °C; for `*Cc1ccc2nc(-c3cc(-c4nc5ccc(*)cc5c(=O)o4)cc(N4C(=O)c5ccccc5C4=O)c3)oc(=O)c2c1` (repeat unit) it is 322.00 °C.
The figure for `*OP(=O)(Oc1cccc2c(*)cccc12)OC1CCCCC1` (repeat unit) is 134.00 °C; for `*OP(=O)(Oc1ccccc1)Oc1cccc2c(*)cccc12` (repeat unit) it is 138.00 °C; for `*Oc1c(F)c(F)c(-c2c(F)c(F)c(Oc3ccc(C(c4ccc(*)cc4)(C(F)(F)F)C(F)(F)F)cc3)c(F)c2F)c(F)c1F` (repeat unit) it is 167.00 °C.
For `*Oc1c(F)c(F)c(S(=O)(=O)c2c(F)c(F)c(Oc3ccc(C(c4ccc(*)cc4)(C(F)(F)F)C(F)(F)F)cc3)c(F)c2F)c(F)c1F` (repeat unit), the glass transition temperature amounted to 182.00 °C.
The value for `*Oc1c([2H])c([2H])c(S(=O)(=O)c2c([2H])c([2H])c(Oc3c([2H])c([2H])c(C(c4c([2H])c([2H])c(*)c([2H])c4[2H])(C([2H])([2H])[2H])C([2H])([2H])[2H])c([2H])c3[2H])c([2H])c2[2H])c([2H])c1[2H]` (repeat unit) was 175.00 °C; that for `*Oc1cccc(*)c1` (repeat unit) was 53.00 °C.
The figure for `*Oc1ccccc1C(=O)OC(=O)c1ccccc1OC(=O)c1ccc(C(*)=O)cc1` (repeat unit) is 120.00 °C.
For the compound `*SC(*)(F)F` (repeat unit), the glass transition temperature was -118.00 °C.
`*Sc1ccc(Cc2ccc(SC(*)=O)cc2)cc1` (repeat unit) displayed a glass transition temperature of 117.00 °C.
Compound `*Sc1ccc(Sc2ccc(Sc3ccc4c(c3)C(=O)N(N3C(=O)c5ccc(*)cc5C3=O)C4=O)cc2)cc1` (repeat unit) displayed a glass transition temperature of 223.50 °C.
The compound `*Sc1ccc2c(c1)Sc1ccc(*)cc1S2` (repeat unit) gave a glass transition temperature of 209.90 °C.
The value for `*[Si](*)(C)c1ccc(COCCN(CC)c2ccc(/N=N/c3ccc([N+](=O)[O-])cc3)cc2)cc1` (repeat unit) was 152.00 °C; that for `*[Si](*)(CCCC)CCCC` (repeat unit) was -40.50 °C; that for `*[Si](*)(CCCC)CCCCC` (repeat unit) was -26.00 °C.
The figure for `*c1[nH]c2ccccc2c1*` (repeat unit) is 137.00 °C; for `*c1c(C)cc(C)c(N2C(=O)c3ccc(S(=O)(=O)c4ccc5c(c4)C(=O)N(*)C5=O)cc3C2=O)c1C` (repeat unit) it is 418.00 °C.
The figure for `*c1cc(-c2nc3ccccc3[nH]2)cc(-n2c(=O)c3cc4c(=O)n(*)c(=O)c4cc3c2=O)c1` (repeat unit) is 180.00 °C; for `*c1cc(-n2c(=O)c3cc4c(=O)n(*)c(=O)c4cc3c2=O)c(O)cc1O` (repeat unit) it is 362.00 °C.
In the case of `*c1cc(/N=N/c2ccc(C#N)cc2)cc(*)c1O` (repeat unit), the glass transition temperature was 176.00 °C.
The value for `*c1cc(N2C(=O)c3ccc(Oc4cccc5c(Oc6ccc7c(c6)C(=O)N(*)C7=O)cccc45)cc3C2=O)cc(C(F)(F)F)c1` (repeat unit) was 250.00 °C; that for `*c1ccc(C(c2ccc(N3C(=O)c4ccc(Oc5cccc6c(Oc7ccc8c(c7)C(=O)N(*)C8=O)cccc56)cc4C3=O)cc2)(C(F)(F)F)C(F)(F)F)cc1` (repeat unit) was 276.00 °C; that for `*c1ccc(N2C(=O)c3ccc(C(=O)c4ccc5c(c4)C(=O)N(c4ccc(-c6nc7cc(-c8ccc9nc(-c%10ccccc%10)c(*)nc9c8)ccc7nc6-c6ccccc6)cc4)C5=O)cc3C2=O)cc1` (repeat unit) was 260.00 °C.
The figure for `*c1ccc(Oc2cc3ccccc3cc2Oc2ccc(N3C(=O)c4ccc(Oc5ccccc5Oc5ccc6c(c5)C(=O)N(*)C6=O)cc4C3=O)cc2)cc1` (repeat unit) is 216.00 °C.
`*c1ccc(Oc2ccc(-c3ccc(Oc4ccc(N5C(=O)c6ccc(Oc7ccccc7Oc7ccc8c(c7)C(=O)N(*)C8=O)cc6C5=O)cc4C(F)(F)F)cc3)cc2)c(C(F)(F)F)c1` (repeat unit): the glass transition temperature turned out to be 208.00 °C.
The figure for `*c1ccc(Oc2ccc(-c3ccc(Oc4ccc(N5C(=O)c6cccc(Oc7cc(C(C)(C)C)c(Oc8cccc9c8C(=O)N(*)C9=O)cc7C(C)(C)C)c6C5=O)cc4)cc3)cc2)cc1` (repeat unit) is 275.00 °C.
Compound `*c1ccc(Oc2ccc(N3C(=O)c4ccc(Oc5cccc6c(Oc7ccc8c(c7)C(=O)N(*)C8=O)cccc56)cc4C3=O)cc2)cc1` (repeat unit) displayed a glass transition temperature of 240.00 °C.
For `*c1ccc(Oc2ccc(N3C(=O)c4ccc(Oc5cccc6c5C(=O)N(*)C6=O)cc4C3=O)cc2)cc1` (repeat unit), the glass transition temperature came out at 285.00 °C.
Turning to `*c1ccc(Oc2ccc(N3C(=O)c4cccc(Oc5cccc(Oc6cccc7c6C(=O)N(*)C7=O)c5)c4C3=O)cc2)cc1` (repeat unit), the glass transition temperature was determined as 226.00 °C.
In turn, `*c1ccc(Oc2ccc(Oc3ccc(N4C(=O)c5ccc(Oc6cccc7c6C(=O)N(*)C7=O)cc5C4=O)cc3)cc2)cc1` (repeat unit) gave a glass transition temperature of 249.00 °C.
The value for `*c1ccc(Oc2ccc(Oc3ccc(N4C(=O)c5ccc(Oc6ccccc6Oc6ccc7c(c6)C(=O)N(*)C7=O)cc5C4=O)cc3)cc2)cc1` (repeat unit) was 202.00 °C; that for `*c1ccc(Oc2ccc(S(=O)(=O)c3ccc(Oc4ccc(N5C(=O)c6ccc(Oc7cccc8c(Oc9ccc%10c(c9)C(=O)N(*)C%10=O)cccc78)cc6C5=O)cc4)cc3)cc2)cc1` (repeat unit) was 201.00 °C; that for `*c1ccc(Oc2cccc(Oc3ccc(N4C(=O)c5cccc(Oc6cccc(Oc7cccc8c7C(=O)N(*)C8=O)c6)c5C4=O)cc3)c2)cc1` (repeat unit) was 193.00 °C.
The figure for `*c1ccc(Oc2ccccc2Oc2ccc(N3C(=O)c4ccc(Oc5ccccc5Oc5ccc6c(c5)C(=O)N(*)C6=O)cc4C3=O)cc2C(F)(F)F)c(C(F)(F)F)c1` (repeat unit) is 185.00 °C; for `*c1ccc(Sc2cc3c(cc2Sc2ccc(N4C(=O)C5C6C=CC(C7C(=O)N(*)C(=O)C67)C5C4=O)cc2)C(=O)N(c2ccc(CC)cc2)C3=O)cc1` (repeat unit) it is 320.00 °C.
Regarding `*c1ccc(Sc2cc3c(cc2Sc2ccc(N4C(=O)c5ccc(Oc6ccc7c(c6)C(=O)N(*)C7=O)cc5C4=O)cc2)C(=O)N(c2ccc(CC)cc2)C3=O)cc1` (repeat unit), the glass transition temperature amounted to 271.00 °C.
Take `*c1ccc(Sc2ccc(Sc3ccc(Sc4ccc(N5C(=O)c6ccc(Sc7ccc(Sc8ccc(Sc9ccc%10c(c9)C(=O)N(*)C%10=O)cc8)cc7)cc6C5=O)cc4)cc3)cc2)cc1` (repeat unit): the glass transition temperature turned out to be 176.5 °C.
The value for `*c1ccc(Sc2ccc(Sc3ccc(Sc4ccc(Sc5ccc(N6C(=O)c7ccc(Sc8ccc(Sc9ccc(Sc%10ccc%11c(c%10)C(=O)N(*)C%11=O)cc9)cc8)cc7C6=O)cc5)s4)s3)s2)cc1` (repeat unit) was 177.00 °C; that for `*c1ccc2c(c1)C(=O)N(c1c(C)cc(C)c(N3C(=O)c4ccc(C(*)(C(F)(F)F)C(F)(F)F)cc4C3=O)c1C)C2=O` (repeat unit) was 377.00 °C.
The value for `*c1ccc2c(c1)C(=O)N(c1c(C)cc(C3(c4cc(C)c(N5C(=O)c6ccc(C(*)(C(F)(F)F)C(F)(F)F)cc6C5=O)c(C(C)C)c4)c4ccccc4-c4ccccc43)cc1C(C)C)C2=O` (repeat unit) was 335.00 °C.
The figure for `*c1cccc(Oc2cccc(Oc3cccc(Oc4cccc(Oc5cccc(N6C(=O)c7ccc(Oc8ccc9c(c8)C(=O)N(*)C9=O)cc7C6=O)c5)c4C#N)c3)c2C#N)c1` (repeat unit) is 176.00 °C.

Source of the values: the PolyMetriX glass transition set.
